Test results taken from ChEMBL document CHEMBL5518210 (J Med Chem, 2024).

Experiments:
in vivo = conditions: C57BL/6, mouse, po, 10 mg/kg
Description: Oral bioavailability in C57BL/6 mouse at 10 mg/kg

Keap1/Nrf2 = Keap1/Nrf2 (Homo sapiens, UniProt Q14145); experiment: Inhibition of His-tagged human Keap1 Kelch domain /FITC-labelled-9mer Nrf2 (unknown origin) protein-protein interaction incubated for 1 hr by fluorescence polarization assay
[1] = target: Kelch-like ECH-associated protein 1 (Homo sapiens, UniProt Q14145); experiment: Binding affinity to biotinylated Keap1 Kelch domain (unknown origin) by SPR method
Sequence of Kelch-like ECH-associated protein 1 (Q14145 whole entry, the tested form may be a part): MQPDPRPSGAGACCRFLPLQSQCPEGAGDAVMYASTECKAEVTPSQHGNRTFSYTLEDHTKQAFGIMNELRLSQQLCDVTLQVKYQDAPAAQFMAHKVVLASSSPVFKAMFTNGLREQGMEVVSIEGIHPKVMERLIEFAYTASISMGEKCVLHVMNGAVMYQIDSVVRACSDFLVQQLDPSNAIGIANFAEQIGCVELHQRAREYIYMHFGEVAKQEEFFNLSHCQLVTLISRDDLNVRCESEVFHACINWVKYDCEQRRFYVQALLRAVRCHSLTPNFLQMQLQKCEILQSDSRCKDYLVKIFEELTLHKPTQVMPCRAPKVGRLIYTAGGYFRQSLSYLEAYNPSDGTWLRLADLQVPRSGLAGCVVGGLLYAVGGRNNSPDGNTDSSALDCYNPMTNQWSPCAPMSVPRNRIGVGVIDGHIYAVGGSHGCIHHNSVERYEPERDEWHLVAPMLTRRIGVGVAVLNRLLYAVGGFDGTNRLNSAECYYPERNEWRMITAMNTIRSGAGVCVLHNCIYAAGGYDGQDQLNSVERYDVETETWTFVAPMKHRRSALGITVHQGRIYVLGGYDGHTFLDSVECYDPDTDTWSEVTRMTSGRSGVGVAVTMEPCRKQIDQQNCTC

[2] = Apparent permeability in human Caco-2 cells incubated for 2 hrs by LC/MS analysis
[3] = Metabolic stability in human liver microsomes assessed as compound remaining at 5 uM measured upto 60 mins
[4] = target: Voltage-gated inwardly rectifying potassium channel KCNH2 (Homo sapiens, UniProt Q12809); experiment: Inhibition of human ERG by patch clamp assay; format: toxicity
Sequence of Voltage-gated inwardly rectifying potassium channel KCNH2 (Q12809 whole entry): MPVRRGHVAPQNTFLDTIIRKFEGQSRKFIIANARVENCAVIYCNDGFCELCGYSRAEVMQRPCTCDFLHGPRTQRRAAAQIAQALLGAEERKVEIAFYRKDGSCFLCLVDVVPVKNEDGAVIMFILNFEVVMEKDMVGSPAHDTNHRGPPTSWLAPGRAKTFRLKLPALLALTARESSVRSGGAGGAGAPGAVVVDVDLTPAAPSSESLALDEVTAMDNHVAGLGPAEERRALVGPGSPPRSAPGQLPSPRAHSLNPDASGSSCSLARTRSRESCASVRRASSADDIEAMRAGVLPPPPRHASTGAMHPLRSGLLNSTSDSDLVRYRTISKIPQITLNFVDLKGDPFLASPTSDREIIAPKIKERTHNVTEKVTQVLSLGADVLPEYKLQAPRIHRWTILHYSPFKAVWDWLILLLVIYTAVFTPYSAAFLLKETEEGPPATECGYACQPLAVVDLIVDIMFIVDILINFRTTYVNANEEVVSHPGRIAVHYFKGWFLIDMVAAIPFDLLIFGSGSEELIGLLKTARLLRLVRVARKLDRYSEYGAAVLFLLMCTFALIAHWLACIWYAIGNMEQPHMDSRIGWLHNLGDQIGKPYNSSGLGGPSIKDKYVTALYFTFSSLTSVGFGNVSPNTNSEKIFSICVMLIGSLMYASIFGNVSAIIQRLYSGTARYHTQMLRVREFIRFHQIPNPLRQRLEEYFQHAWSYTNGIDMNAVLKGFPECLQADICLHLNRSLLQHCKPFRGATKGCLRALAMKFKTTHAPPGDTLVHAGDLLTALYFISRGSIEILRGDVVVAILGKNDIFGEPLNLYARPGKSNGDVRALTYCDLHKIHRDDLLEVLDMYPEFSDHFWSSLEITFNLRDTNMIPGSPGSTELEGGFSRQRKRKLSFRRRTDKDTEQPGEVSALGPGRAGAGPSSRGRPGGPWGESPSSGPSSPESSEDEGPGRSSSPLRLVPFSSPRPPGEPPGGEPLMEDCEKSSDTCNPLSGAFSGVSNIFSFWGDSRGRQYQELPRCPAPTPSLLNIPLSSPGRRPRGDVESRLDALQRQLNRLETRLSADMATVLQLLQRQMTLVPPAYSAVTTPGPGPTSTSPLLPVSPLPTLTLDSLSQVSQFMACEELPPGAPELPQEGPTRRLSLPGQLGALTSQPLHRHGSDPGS

Cytochrome P450 3A4 = Cytochrome P450 3A4 (Homo sapiens, UniProt P08684); experiment: Inhibition of CYP3A4 in human liver microsomes; format: ADME, Microsome
Sequence of Cytochrome P450 3A4 (P08684 whole entry): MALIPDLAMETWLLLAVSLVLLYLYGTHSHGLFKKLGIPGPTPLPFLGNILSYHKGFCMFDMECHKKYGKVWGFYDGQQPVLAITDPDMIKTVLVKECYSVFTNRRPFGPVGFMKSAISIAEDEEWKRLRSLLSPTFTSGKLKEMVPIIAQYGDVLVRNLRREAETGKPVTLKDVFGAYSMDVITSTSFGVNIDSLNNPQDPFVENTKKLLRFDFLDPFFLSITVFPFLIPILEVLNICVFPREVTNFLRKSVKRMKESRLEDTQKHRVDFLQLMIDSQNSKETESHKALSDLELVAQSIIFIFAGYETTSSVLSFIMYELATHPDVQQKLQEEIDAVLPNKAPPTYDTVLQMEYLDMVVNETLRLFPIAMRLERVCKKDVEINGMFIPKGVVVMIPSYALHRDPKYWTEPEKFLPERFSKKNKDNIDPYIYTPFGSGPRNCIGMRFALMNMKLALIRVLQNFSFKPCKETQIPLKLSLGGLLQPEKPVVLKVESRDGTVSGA

Cytochrome P450 1A2 = target: T1, Cytochrome P450 1A2 (Homo sapiens, UniProt P05177); experiment: Inhibition of CYP1A2 in human liver microsomes; format: ADME, Microsome
T1 sequence (P05177 whole entry): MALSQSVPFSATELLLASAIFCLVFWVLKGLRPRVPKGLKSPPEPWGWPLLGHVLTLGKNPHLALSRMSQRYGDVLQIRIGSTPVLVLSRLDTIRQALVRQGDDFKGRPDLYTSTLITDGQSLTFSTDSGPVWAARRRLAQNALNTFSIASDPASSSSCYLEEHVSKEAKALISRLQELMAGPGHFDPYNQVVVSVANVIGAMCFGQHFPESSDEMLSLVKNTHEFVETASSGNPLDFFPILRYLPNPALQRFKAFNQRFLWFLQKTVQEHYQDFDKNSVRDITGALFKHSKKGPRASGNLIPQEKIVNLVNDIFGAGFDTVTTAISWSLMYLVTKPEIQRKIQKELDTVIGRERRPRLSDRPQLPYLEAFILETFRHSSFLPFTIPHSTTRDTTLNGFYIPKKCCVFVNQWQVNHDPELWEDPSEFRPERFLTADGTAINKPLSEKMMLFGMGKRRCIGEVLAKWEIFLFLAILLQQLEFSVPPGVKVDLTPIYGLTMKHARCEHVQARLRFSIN

Cytochrome P450 2C8 = target: T2, Cytochrome P450 2C8 (Homo sapiens, UniProt P10632); experiment: Inhibition of CYP2C8 in human liver microsomes; format: ADME, Microsome
T2 sequence (P10632 whole entry): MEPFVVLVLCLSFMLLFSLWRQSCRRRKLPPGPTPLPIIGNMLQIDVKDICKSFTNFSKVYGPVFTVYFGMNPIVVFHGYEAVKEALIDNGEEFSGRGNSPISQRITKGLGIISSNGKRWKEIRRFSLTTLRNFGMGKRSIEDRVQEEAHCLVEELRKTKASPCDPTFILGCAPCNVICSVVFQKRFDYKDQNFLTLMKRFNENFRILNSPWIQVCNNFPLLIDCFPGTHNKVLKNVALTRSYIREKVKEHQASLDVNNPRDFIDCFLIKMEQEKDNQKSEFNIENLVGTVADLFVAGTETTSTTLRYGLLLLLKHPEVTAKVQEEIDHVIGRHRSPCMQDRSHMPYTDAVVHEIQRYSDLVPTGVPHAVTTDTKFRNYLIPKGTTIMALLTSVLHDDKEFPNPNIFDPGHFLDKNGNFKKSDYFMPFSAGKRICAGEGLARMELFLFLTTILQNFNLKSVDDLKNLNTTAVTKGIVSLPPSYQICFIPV

Cytochrome P450 2C9 = Cytochrome P450 2C9 (Homo sapiens, UniProt P11712); experiment: Inhibition of CYP2C9 in human liver microsomes; format: ADME, Microsome
Sequence of Cytochrome P450 2C9 (P11712 whole entry): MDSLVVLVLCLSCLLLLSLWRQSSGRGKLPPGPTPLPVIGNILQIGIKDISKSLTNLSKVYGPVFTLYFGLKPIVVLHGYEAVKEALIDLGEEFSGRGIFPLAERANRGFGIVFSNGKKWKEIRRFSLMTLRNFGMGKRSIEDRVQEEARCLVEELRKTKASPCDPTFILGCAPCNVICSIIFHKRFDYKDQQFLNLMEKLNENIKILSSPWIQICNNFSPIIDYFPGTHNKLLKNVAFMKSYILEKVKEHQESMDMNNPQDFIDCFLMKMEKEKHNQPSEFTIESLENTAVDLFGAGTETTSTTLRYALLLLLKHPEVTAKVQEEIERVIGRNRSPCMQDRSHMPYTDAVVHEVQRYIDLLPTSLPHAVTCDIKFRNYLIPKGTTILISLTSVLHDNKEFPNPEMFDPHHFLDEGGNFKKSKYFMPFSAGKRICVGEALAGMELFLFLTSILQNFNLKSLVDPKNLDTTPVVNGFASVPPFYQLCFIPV

Cytochrome P450 2C19 = Cytochrome P450 2C19 (Homo sapiens, UniProt P33261); experiment: Inhibition of CYP2C19 in human liver microsomes; format: ADME, Microsome
Sequence of Cytochrome P450 2C19 (P33261 whole entry): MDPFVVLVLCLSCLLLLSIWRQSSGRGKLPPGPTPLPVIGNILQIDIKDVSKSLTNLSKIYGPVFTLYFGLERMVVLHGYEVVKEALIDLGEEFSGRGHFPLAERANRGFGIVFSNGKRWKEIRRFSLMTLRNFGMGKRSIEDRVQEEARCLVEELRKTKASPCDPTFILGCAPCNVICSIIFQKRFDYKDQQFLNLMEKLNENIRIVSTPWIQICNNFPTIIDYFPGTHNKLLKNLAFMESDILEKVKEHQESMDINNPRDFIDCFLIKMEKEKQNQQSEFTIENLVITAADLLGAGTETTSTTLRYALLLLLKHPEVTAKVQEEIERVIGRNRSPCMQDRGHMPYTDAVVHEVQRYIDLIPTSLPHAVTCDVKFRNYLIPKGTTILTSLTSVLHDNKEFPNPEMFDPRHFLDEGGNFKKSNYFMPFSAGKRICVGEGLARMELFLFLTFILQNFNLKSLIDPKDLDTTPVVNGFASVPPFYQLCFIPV

Cytochrome P450 2D6 = Cytochrome P450 2D6 (Homo sapiens, UniProt P10635); experiment: Inhibition of CYP2D6 in human liver microsomes; format: ADME, Microsome
Sequence of Cytochrome P450 2D6 (P10635 whole entry): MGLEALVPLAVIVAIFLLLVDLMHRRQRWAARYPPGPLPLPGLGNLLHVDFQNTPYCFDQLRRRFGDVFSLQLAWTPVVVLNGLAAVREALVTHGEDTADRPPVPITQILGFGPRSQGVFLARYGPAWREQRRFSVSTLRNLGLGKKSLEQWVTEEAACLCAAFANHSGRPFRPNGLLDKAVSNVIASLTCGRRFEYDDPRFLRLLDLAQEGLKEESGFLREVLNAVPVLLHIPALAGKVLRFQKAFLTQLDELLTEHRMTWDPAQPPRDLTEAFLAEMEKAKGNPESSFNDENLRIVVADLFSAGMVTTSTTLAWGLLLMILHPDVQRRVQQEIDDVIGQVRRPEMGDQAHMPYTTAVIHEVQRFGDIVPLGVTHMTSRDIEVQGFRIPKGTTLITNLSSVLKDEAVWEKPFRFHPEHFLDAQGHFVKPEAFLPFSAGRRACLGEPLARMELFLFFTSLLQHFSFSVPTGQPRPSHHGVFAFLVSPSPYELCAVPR

Sequence of Keap1/Nrf2 (Q16236 whole entry, the tested form may be a part): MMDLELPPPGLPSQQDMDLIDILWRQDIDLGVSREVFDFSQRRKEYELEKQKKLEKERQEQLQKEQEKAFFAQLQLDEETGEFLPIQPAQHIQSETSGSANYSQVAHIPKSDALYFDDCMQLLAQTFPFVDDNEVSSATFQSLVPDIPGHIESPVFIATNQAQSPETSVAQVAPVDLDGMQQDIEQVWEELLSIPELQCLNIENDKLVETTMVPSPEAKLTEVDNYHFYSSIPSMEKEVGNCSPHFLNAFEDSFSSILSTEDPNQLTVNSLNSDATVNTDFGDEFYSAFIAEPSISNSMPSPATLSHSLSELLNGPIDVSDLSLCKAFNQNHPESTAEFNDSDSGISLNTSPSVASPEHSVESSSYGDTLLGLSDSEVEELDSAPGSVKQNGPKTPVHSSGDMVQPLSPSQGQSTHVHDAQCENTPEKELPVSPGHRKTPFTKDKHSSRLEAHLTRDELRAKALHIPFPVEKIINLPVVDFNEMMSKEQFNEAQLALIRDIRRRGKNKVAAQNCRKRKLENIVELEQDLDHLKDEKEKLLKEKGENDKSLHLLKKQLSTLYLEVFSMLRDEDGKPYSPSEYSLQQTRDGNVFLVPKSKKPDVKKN
Sequence of Keap1/Nrf2 (Q14145 whole entry, the tested form may be a part): as the sequence (Q14145 whole entry, the tested form may be a part) above

Compound	IC50 (Keap1/Nrf2) [µM]	Papp at 2 h [2] [×10⁻⁶ cm/s]	remaining at 1 h, 5 µM [3] [%]	further results
COc1ccc(S(=O)(=O)Nc2ccc(N(CC(=O)N3CCSC3=O)S(=O)(=O)c3ccc(OC)cc3)c3ccccc23)cc1				bioavailability (in vivo): 68%
Cc1ccc([C@@H](NC(=O)Cc2ccc(Cn3ccccc3=O)cc2)[C@@H](C)C(=O)O)cc1	0.92	0.16	98	
Cc1ccc([C@@H](NC(=O)[C@@H](F)c2ccc(Cl)cc2)[C@@H](C)C(=O)O)cc1OCC(C)(C)C#N				IC50 [4]: > 30 µM; IC50 (Cytochrome P450 3A4): > 10 µM; IC50 (Cytochrome P450 1A2): > 10 µM; IC50 (Cytochrome P450 2C8): > 10 µM; IC50 (Cytochrome P450 2C9): 6.2 µM; IC50 (Cytochrome P450 2C19): > 10 µM; IC50 (Cytochrome P450 2D6): > 10 µM
Cc1ccc([C@@H](NC(=O)Cc2ccc(Cc3ncccc3C)cc2)[C@@H](C)C(=O)O)cc1.Cl	0.14	11	93	
Cc1ccc([C@@H](NC(=O)Cc2ccc(CC3CCCCC3)cc2)[C@@H](C)C(=O)O)cc1	8.4	42	16	
Cc1ccc([C@@H](NC(=O)Cc2ccc(CC3CC3)cc2)[C@@H](C)C(=O)O)cc1	15	15	93	
Cc1ccc([C@@H](NC(=O)Cc2ccc(Cc3cccc(C)n3)cc2)[C@@H](C)C(=O)O)cc1.Cl	0.17	2	94	
Cc1ccc([C@@H](NC(=O)Cc2ccc(Cc3cc(C)ccn3)cc2)[C@@H](C)C(=O)O)cc1.Cl	0.22	5.4	92	
COc1cccnc1Cc1ccc(CC(=O)N[C@H](c2ccc(C)cc2)[C@@H](C)C(=O)O)cc1.Cl	0.1	7.1	91	
Cc1ccc([C@@H](NC(=O)Cc2ccc(Cc3ccccn3)cc2)[C@@H](C)C(=O)O)cc1.Cl	0.36	5.7	94	
Cc1ccc([C@@H](NC(=O)Cc2ccc(Cc3ccc(C)cn3)cc2)[C@@H](C)C(=O)O)cc1.Cl	0.2	5.4	97	
CCOc1cccnc1Cc1ccc(CC(=O)N[C@H](c2ccc(C)cc2)[C@@H](C)C(=O)O)cc1	0.045	8.9	84	
CCOc1cccnc1Cc1ccc([C@H](F)C(=O)N[C@H](c2ccc(C)cc2)[C@@H](C)C(=O)O)cc1				IC50 [4]: > 30 µM; IC50 (Cytochrome P450 3A4): > 10 µM; IC50 (Cytochrome P450 1A2): > 10 µM; IC50 (Cytochrome P450 2C8): > 10 µM; IC50 (Cytochrome P450 2C9): > 10 µM; IC50 (Cytochrome P450 2C19): > 10 µM; IC50 (Cytochrome P450 2D6): > 10 µM
Cc1ccc([C@@H](NC(=O)Cc2ccc(Cn3cccn3)cc2)[C@@H](C)C(=O)O)cc1	0.64	1.1	95	
Cc1ccc([C@H](F)C(=O)N[C@H](c2ccc(C)c(OCC3(C#N)CC3)c2)[C@@H](C)C(=O)O)cc1				IC50 [4]: > 30 µM; IC50 (Cytochrome P450 3A4): > 10 µM; IC50 (Cytochrome P450 1A2): > 10 µM; IC50 (Cytochrome P450 2C8): > 10 µM; IC50 (Cytochrome P450 2C9): > 10 µM; IC50 (Cytochrome P450 2C19): > 10 µM; IC50 (Cytochrome P450 2D6): > 10 µM
Cc1ccc([C@@H](NC(=O)Cc2ccc(Cc3ccccc3)cc2)[C@@H](C)C(=O)O)cc1	2	24	79	

Second part, led by results:

IC50 (Keap1/Nrf2) [µM]	Papp at 2 h [2] [×10⁻⁶ cm/s]	remaining at 1 h, 5 µM [3] [%]	Compound	further results
0.26	33		Cc1ccc([C@@H](NC(=O)[C@@H](F)c2ccc3c(c2)CCCC3)[C@@H](C)C(=O)O)cc1	Kd [1]: 0.13 µM
10	17		Cc1ccc(CC(=O)N[C@H](c2ccc(C)c(OCC3CCCCC3)c2)[C@@H](C)C(=O)O)cc1	
9.6	18	57	CCCOc1cc([C@@H](NC(=O)Cc2ccc(C)cc2)[C@@H](C)C(=O)O)ccc1C	
3.6	26	73	Cc1ccc(CC(=O)N[C@H](c2ccc(C)c(OCC(C)C)c2)[C@@H](C)C(=O)O)cc1	
20	8.8	97	Cc1ccc(CC(=O)N[C@H](c2ccc(C)cc2)[C@@H](C)C(=O)O)cc1	
0.078	1.4	43	Cc1ccc(CC(=O)N[C@H](c2ccc(C)c(OCC(C)(C)C#N)c2)[C@@H](C)C(=O)O)cc1	
0.27	11	68	Cc1ccc(CC(=O)N[C@H](c2ccc(C)c(OCC(C)(C)F)c2)[C@@H](C)C(=O)O)cc1	
4.2	0.31	100	Cc1ccc(CC(=O)N[C@H](c2ccc(C)c(OCC(C)(C)O)c2)[C@@H](C)C(=O)O)cc1	
5	21		Cc1ccc(CC(=O)N[C@H](c2ccc(C)c(OCC3CCCC3)c2)[C@@H](C)C(=O)O)cc1	
0.05	0.62	83	Cc1ccc(CC(=O)N[C@H](c2ccc(C)c(OCC3(C#N)CC3)c2)[C@@H](C)C(=O)O)cc1	
13	21	74	Cc1ccc(CC(=O)N[C@H](c2ccc(C)c(OCc3ccccc3)c2)[C@@H](C)C(=O)O)cc1	
0.091	1.2	90	Cc1ccc([C@@H](NC(=O)Cc2ccc(Cl)cc2)[C@@H](C)C(=O)O)cc1OCC(C)(C)C#N	
